Laboratory results as given in publication PMC6471177 (Pharmaceutics, 2019).
Read-outs that look alike come from different tables or passages of the source.

Legend:
[1] = Pharmacokinetics of intravenous docetaxel with oral LC478 in rats; type: in vivo, Sprague–Dawley rats; conditions: for Vd: read-out: Vss
Procedure: For the intravenous study, rats were divided into three groups according to LC478 doses (0, 30, and 100 mg/kg LC478, respectively). […] To prevent blood clotting, 0.3 mL of 0.9% NaCl-injectable solution containing heparin (20 U/mL) was flushed into each cannula immediately after each blood sampling. […] At this time, each rat was sacrificed by withdrawing blood via a heart puncture, and then the entire gastrointestinal tract (including its contents and feces) was extracted and transferred into a beaker. […] A 100 μL aliquot of the supernatant was collected from each beaker.

[2] = cited from earlier work
[3] = male, Sprague-Dawley, rat, plasma, iv, 20 mg/kg, rats, docetaxel 20 mg/kg intravenous, with 0 mg/kg LC478
[4] = male, Sprague-Dawley, rat, plasma, iv, 20 mg/kg, rats, docetaxel 20 mg/kg intravenous, with 30 mg/kg oral LC478
[5] = male, Sprague-Dawley, rat, plasma, iv, 20 mg/kg, rats, docetaxel 20 mg/kg intravenous, with 100 mg/kg oral LC478
[6] = rats, docetaxel 20 mg/kg intravenous, with 0 mg/kg LC478
[7] = rats, docetaxel 20 mg/kg intravenous, with 30 mg/kg oral LC478
[8] = rats, docetaxel 20 mg/kg intravenous, with 100 mg/kg oral LC478

CC(=O)O[C@@]12CO[C@@H]1C[C@H](O)[C@@]1(C)C(=O)[C@H](O)C3=C(C)[C@@H](OC(=O)[C@H](O)[C@@H](NC(=O)OC(C)(C)C)c4ccccc4)C[C@@](O)([C@@H](OC(=O)c4ccccc4)[C@H]21)C3(C)C [docetaxel]
Ae0–24 h ([1]; bound over all LC478 groups): less than 1.56 % of dose | contribution of CLR to CL ([1]; bound over all LC478 groups): less than 1.56% | Ae0–24 h smaller by ([1]; intravenous docetaxel, 100 mg/kg LC478 vs 0 mg/kg LC478): 31.1% | Ae0–24 h smaller by ([1]; intravenous docetaxel, 100 mg/kg LC478 vs 30 mg/kg LC478): 37.2% | CLR slower by ([1]; intravenous docetaxel, 100 mg/kg LC478 vs without LC478): 40% | GI24 h ([1]; intravenous docetaxel, bound over all LC478 groups): less than 1.76 % of the intravenous dose | AUC(0-inf) [1, 3]: 4.42 µg·h/mL | AUC(0-t) [1, 3]: 4.22 µg·h/mL | CL renal [1, 3]: 0.0678 ± 0.0259 L/h/kg | MRT [1, 3]: 0.965 h | clearance [1, 3]: 4.7 ± 0.786 L/h/kg | Vd [1, 3]: 4.57 ± 1.03 L/kg | AUC(0-inf) [1, 4]: 5.05 µg·h/mL | AUC(0-t) [1, 4]: 4.83 µg·h/mL | CL renal [1, 4]: 0.0636 ± 0.0141 L/h/kg | MRT [1, 4]: 0.967 h | clearance [1, 4]: 4.07 ± 0.702 L/h/kg | half-life ([1]; male, Sprague-Dawley, rat, plasma, iv, 20 mg/kg, rats, docetaxel 20 mg/kg intravenous, with 30 mg/kg oral LC478, read-out: Terminal half-life): 2.4 ± 0.627 h | Vd [1, 4]: 4.02 ± 1.36 L/kg | AUC(0-inf) [1, 5]: 4.58 µg·h/mL | AUC(0-t) [1, 5]: 4.47 µg·h/mL | CL renal [1, 5]: 0.0407 ± 0.0152 L/h/kg | MRT [1, 5]: 1.12 h | clearance [1, 5]: 4.22 ± 0.546 L/h/kg | Vd [1, 5]: 4.91 ± 1.44 L/kg | Ae0–24 h [1, 6]: 1.42 ± 0.418 % of dose | CLNR [1, 6]: 4.63 ± 0.768 L/h/kg | GI24 h [1, 6]: 0.881 ± 0.411 % of dose | Ae0–24 h [1, 7]: 1.56 ± 0.129 % of dose | CLNR [1, 7]: 4.01 ± 0.684 L/h/kg | Frel [1, 7]: 114% | GI24 h [1, 7]: 1.01 ± 0.731 % of dose | Ae0–24 h [1, 8]: 0.979 ± 0.365 % of dose | CLNR [1, 8]: 4.18 ± 0.548 L/h/kg | Frel [1, 8]: 104% | GI24 h [1, 8]: 1.76 ± 0.958 % of dose | oral bioavailability [2]: less than 5 % of the oral dose
